Laboratory results reported in PMC9675574 (JCI Insight, 2022).

Legend:
Format in all cases: biochemical
[1] = target: T1, human trypsin isoform PRSS1 (cationic trypsin), recombinant (Homo sapiens, UniProt P07477); experiment: Competitive inhibition kinetics of trypsin, GPR-pNA substrate; conditions: for Km / kcat: GPR-pNA, 24°C; for Ki: Ki dabigatran, mean ± SD, n = 3
T1 construct: made in house; host or cells: Escherichia coli BL21(DE3)
Procedure: (§1) Recombinant human and mouse trypsinogens were expressed in Escherichia coli BL21(DE3) (Invitrogen), refolded in vitro, and purified by ecotin affinity chromatography (Pharmacia FPLC), according to published protocols ([60], [63], [64]). Sulfated human trypsinogens were purified from archived samples of human pancreatic juice, as described previously, with minor modifications ([65], [66]). Briefly, 50 mg freeze-dried pancreatic juice was dissolved in 2 mL 10 mM HCl, clarified by centrifugation (21,000g, 5 minutes, 4°C), and loaded onto a MonoQ 5/50 GL column equilibrated with 20 mM Tris-HCl (pH 8.0). Proteins were eluted with a 0–0.5 M NaCl gradient at 1 mL/min flow rate for 30 minutes. The fractions containing the cationic and anionic trypsinogens were further purified with ecotin affinity chromatography. The concentration of trypsinogen preparations was estimated from their UV absorbance at 280 nm using the extinction coefficients reported previously for mouse trypsinogens ([64]) and 37,525, 38,890, and 41,535/M/cm for human cationic trypsinogen (PRSS1), anionic trypsinogen (PRSS2), and mesotrypsinogen (PRSS3), respectively. To activate trypsinogen to trypsin, approximately 1 μM solution was incubated at 37°C with 28.2 ng/mL human enterokinase (final concentration) in 0.1 M Tris-HCl (pH 8.0), 10 mM CaCl2, and 0.05% Tween 20 for 1 hour. The activation reaction was followed by measuring trypsin activity: 2 μL trypsin was diluted in 48 μL assay buffer [0.1 M Tris-HCl (pH 8.0), 1 mM CaCl2, and 0.05% Tween 20], and 150 μL of 200 μM GPR-pNA trypsin substrate (in assay buffer) was added. Substrate cleavage resulting in the release of the yellow p-nitroaniline was monitored for 1 minute in a Spectramax Plus 384 microplate reader at 405 nm.
(§2) Michaelis-Menten kinetic parameters of trypsin isoforms were determined with the chromogenic substrate GPR-pNA at 24°C. The trypsin concentration was 1 nM and the substrate concentration was varied typically between 1.56 and 200 μM in a final volume of 200 μL assay buffer. The substrate concentration range was 3.1–400 μM for mouse trypsin isoform T7 and 0.4–50 μM for mouse trypsin isoform T20. Km and kcat values were calculated from hyperbolic fits to plots of reaction velocity versus substrate concentration.
(§3) Michaelis-Menten kinetic parameters were then measured after adding 100 μL trypsin substrate, as described above. […] To determine the Ki, the Km values were plotted as a function of the inhibitor concentration, and the Ki was calculated by dividing the y axis intercept with the slope of the linear fit. This value corresponds to the negative of the x axis intercept. Alternatively, the substrate saturation curves obtained in the absence and presence of the increasing inhibitor concentrations were globally fitted to the competitive inhibition equation y = vmax × (x/[KmObs+ x]), where y is the reaction velocity, vmax is the maximal velocity, x is the substrate concentration, and KmObs = Km × (1 + [I]/Ki), where [I] is the inhibitor concentration. Experiments were performed 3 times and each experiment was analyzed separately. […] Kinetic analysis was performed with the Prism 8 program (GraphPad).

[2] = target: T2, human trypsin isoform PRSS2 (anionic trypsin), recombinant (Homo sapiens, UniProt P07478); experiment: as above; conditions: for Km / kcat: GPR-pNA, 24°C; for Ki: Ki dabigatran, mean ± SD, n = 3
T2 construct: made in house; host or cells: Escherichia coli BL21(DE3)
Procedure: as §1, §2, §3

[3] = target: T3, human trypsin isoform PRSS3 (mesotrypsin) (Homo sapiens, UniProt P35030); experiment: as above; conditions: for kcat: GPR-pNA, 24°C; for Ki: Ki dabigatran, mean ± SD, n = 3
T3 construct: made in house; host or cells: Escherichia coli BL21(DE3)
T3 sequence (P35030 81-304 limits assumed): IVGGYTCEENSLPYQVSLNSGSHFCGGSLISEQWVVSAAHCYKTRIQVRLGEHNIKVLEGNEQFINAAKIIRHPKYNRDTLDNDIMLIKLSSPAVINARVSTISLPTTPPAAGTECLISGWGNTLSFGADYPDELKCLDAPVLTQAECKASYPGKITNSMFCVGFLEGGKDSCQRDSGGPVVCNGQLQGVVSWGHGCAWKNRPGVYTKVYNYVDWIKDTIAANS
Procedure: as §1, §2, §3

[4] = target: T4, mouse trypsin isoform T20 (anionic trypsin) (Mus musculus, UniProt P07146); experiment: as above; conditions: for Km / kcat: GPR-pNA, 24°C
T4 construct: made in house; host or cells: Escherichia coli BL21(DE3)
T4 sequence (P07146 24-246): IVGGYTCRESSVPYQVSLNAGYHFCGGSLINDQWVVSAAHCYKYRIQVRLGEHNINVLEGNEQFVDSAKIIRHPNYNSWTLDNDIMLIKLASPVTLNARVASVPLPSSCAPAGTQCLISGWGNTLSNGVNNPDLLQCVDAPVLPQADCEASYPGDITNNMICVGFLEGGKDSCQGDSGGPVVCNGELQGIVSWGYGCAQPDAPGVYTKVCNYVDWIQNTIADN
Procedure: as §1, §2, §3

[5] = target: T5, sulfated human trypsin PRSS1-SO4 purified from pancreatic juice (Homo sapiens, UniProt P07477); experiment: as above; conditions: for Km / kcat: GPR-pNA, 24°C
T5 construct: from tissue; host or cells: human pancreatic juice
Procedure: as §1, §2, §3

[6] = target: T6, sulfated human trypsin PRSS2-SO4 purified from pancreatic juice (Homo sapiens, UniProt P07478); experiment: as above; conditions: for Km / kcat: GPR-pNA, 24°C; for Ki: Ki dabigatran, mean ± SD, n = 3
T6 construct: from tissue; host or cells: human pancreatic juice
Procedure: as §1, §2, §3

[7] = target: mouse trypsin isoform T9 (anionic trypsin) (Mus musculus, UniProt Q9QUK9); experiment: biochemical; conditions: for Km / kcat: GPR-pNA, 24°C; for Ki: Ki dabigatran, mean ± SD, n = 3
Procedure: as §1, §2, §3

[8] = Ki dabigatran, Global fit, mean ± SD, n = 3

Sequence of mouse trypsin isoform T9 (anionic trypsin) (Q9QUK9 24-246): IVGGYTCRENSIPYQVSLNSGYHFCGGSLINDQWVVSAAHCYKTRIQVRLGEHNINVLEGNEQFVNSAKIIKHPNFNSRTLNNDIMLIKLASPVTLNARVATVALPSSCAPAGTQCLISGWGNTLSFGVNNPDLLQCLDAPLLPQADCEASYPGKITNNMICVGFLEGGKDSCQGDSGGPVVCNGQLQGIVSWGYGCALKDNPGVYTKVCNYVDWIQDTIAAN
T2 sequence (P07478 24-247): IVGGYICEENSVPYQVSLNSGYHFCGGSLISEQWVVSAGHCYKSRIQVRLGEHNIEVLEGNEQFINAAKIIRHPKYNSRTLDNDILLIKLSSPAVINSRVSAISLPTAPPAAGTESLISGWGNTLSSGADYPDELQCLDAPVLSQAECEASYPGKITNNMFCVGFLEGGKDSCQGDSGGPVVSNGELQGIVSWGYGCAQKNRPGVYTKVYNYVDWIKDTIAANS
T6 sequence (P07478 24-247): as above

[H]/N=C(/N)c1ccc(NCc2nc3cc(C(=O)N(CCC(=O)O)c4ccccn4)ccc3n2C)cc1 [dabigatran]
Km ([1]; 25 nM dabigatran): 31.3 ± 3.6 µM | kcat ([1]; 25 nM dabigatran): 90.8 ± 2.8 per second | Km ([1]; 50 nM dabigatran): 50.2 ± 2.5 µM | kcat ([1]; 50 nM dabigatran): 91.6 ± 4.8 per second | Km ([1]; 75 nM dabigatran): 71.1 ± 4.2 µM | kcat ([1]; 75 nM dabigatran): 95 ± 2.3 per second | Km ([1]; 100 nM dabigatran): 88.7 ± 3.1 µM | kcat ([1]; 100 nM dabigatran): 99.8 ± 3.3 per second | Ki ([1]; Global fit): 28.2 ± 4.5 nM | Ki ([1]; Individual fit): 21 ± 2.3 nM | Km ([2]; 25 nM dabigatran): 23 ± 1.3 µM | kcat ([2]; 25 nM dabigatran): 90.6 ± 2.6 per second | Km ([2]; 50 nM dabigatran): 37.6 ± 0.6 µM | kcat ([2]; 50 nM dabigatran): 89.1 ± 1.7 per second | Km ([2]; 75 nM dabigatran): 46.8 ± 1.5 µM | kcat ([2]; 75 nM dabigatran): 90.2 ± 2.3 per second | Km ([2]; 100 nM dabigatran): 61.1 ± 6.1 µM | kcat ([2]; 100 nM dabigatran): 87.5 ± 4.4 per second | Ki ([2]; Global fit): 14.1 ± 1.1 nM | Ki ([2]; Individual fit): 17.9 ± 3.3 nM | kcat ([3]; 50 nM dabigatran): 214.6 ± 4.9 per second | kcat ([3]; 100 nM dabigatran): 215.5 ± 4.6 per second | kcat ([3]; 150 nM dabigatran): 217.5 ± 10.8 per second | kcat ([3]; 200 nM dabigatran): 220.5 ± 4.1 per second | Ki ([3]; Global fit): 51.6 ± 2.1 nM | Ki ([3]; Individual fit): 35.1 ± 2.4 nM | Km ([4]; 50 nM dabigatran): 9.5 ± 1.3 µM | kcat ([4]; 50 nM dabigatran): 52 ± 4 per second | Km ([4]; 100 nM dabigatran): 19.5 ± 0.5 µM | kcat ([4]; 100 nM dabigatran): 51.1 ± 1.7 per second | Km ([4]; 150 nM dabigatran): 22.5 ± 2.5 µM | kcat ([4]; 150 nM dabigatran): 48.7 ± 3.3 per second | Km ([4]; 200 nM dabigatran): 28.5 ± 2.2 µM | kcat ([4]; 200 nM dabigatran): 50 ± 6.3 per second | Ki [4, 8]: 22.6 ± 0.7 nM | Km ([5]; 25 nM dabigatran): 21.4 ± 1.5 µM | kcat ([5]; 25 nM dabigatran): 101 ± 2.3 per second | Km ([5]; 50 nM dabigatran): 32.7 ± 3 µM | kcat ([5]; 50 nM dabigatran): 105.5 ± 5.1 per second | Km ([5]; 75 nM dabigatran): 42.8 ± 7.8 µM | kcat ([5]; 75 nM dabigatran): 103.2 ± 4.2 per second | Km ([5]; 100 nM dabigatran): 57 ± 2.1 µM | kcat ([5]; 100 nM dabigatran): 104.7 ± 2.1 per second | Ki [5, 8]: 23.3 ± 2 nM | Km ([6]; 25 nM dabigatran): 13 ± 0.5 µM | kcat ([6]; 25 nM dabigatran): 63.4 ± 0.4 per second | Km ([6]; 50 nM dabigatran): 23.5 ± 1.3 µM | kcat ([6]; 50 nM dabigatran): 66.8 ± 1.6 per second | Km ([6]; 75 nM dabigatran): 31.5 ± 0.4 µM | kcat ([6]; 75 nM dabigatran): 63.8 ± 0.9 per second | Km ([6]; 100 nM dabigatran): 42.4 ± 3.5 µM | kcat ([6]; 100 nM dabigatran): 67.2 ± 1.9 per second | Ki ([6]; Global fit): 10.3 ± 0.5 nM | Ki ([6]; Individual fit): 10 ± 3.2 nM | Km ([7]; 50 nM dabigatran): 19.8 ± 2.7 µM | kcat ([7]; 50 nM dabigatran): 75.8 ± 2 per second | Km ([7]; 100 nM dabigatran): 28.3 ± 2.8 µM | kcat ([7]; 100 nM dabigatran): 72.5 ± 2.6 per second | Km ([7]; 150 nM dabigatran): 46.1 ± 2.4 µM | kcat ([7]; 150 nM dabigatran): 78.4 ± 0.1 per second | Km ([7]; 200 nM dabigatran): 56.7 ± 7.3 µM | kcat ([7]; 200 nM dabigatran): 77.6 ± 2.5 per second | Ki ([7]; Global fit): 35.8 ± 3.5 nM | Ki ([7]; Individual fit): 28.4 ± 7.1 nM
